Where two headings read alike, the source gives them in different places.
How the values were obtained:
[1] = tested on: mouse lung; experiment: Luciferase expression in mouse lung 3 days after intranasal instillation of VR1223 complexed with GAP-DLRIE/DOPE; format: in vivo; details: 132 μg VR1223 + GAP-DLRIE/DOPE, day 3
[2] = tested on: mouse quadriceps muscle; experiment: Luciferase expression in mouse quadriceps muscle 7 days after i.m. injection of plasmid VR1223 in salt solutions; format: in vivo; parameters: lux: unit: ng/muscle; details: for luciferase expression compared with saline (words): 150 mM solutions; for lux: 7-day luciferase expression, VR1223
[3] = pH of the salt solutions; format: physicochemical
[4] = Osmolarity of the salt solutions; format: physicochemical; details: for Osm: 150 mM unless otherwise indicated
[5] = tested on: mouse quadriceps muscle; experiment: Hematocrit after i.m. injection of mouse erythropoietin plasmid (VR2901, VR2996); format: in vivo
Description: Hematocrits were measured by centrifugation of blood obtained from the retro-orbital cavity of mice. Blood samples were collected in 75 μl heparinized capillary tubes and analyzed using HemaSTAT II microhematocrit centrifuge (Separation Technology, Inc., Altamonte Springs, Fla.).
The mice were monitored over time for serum hematocrit levels, which correlate with the expression of erythropoeitin.
The mice were monitored over four weeks for serum hematocrit levels, which correlate with the expression of erythropoeitin.
The mice were monitored at days 0, 7, 14, 21, and 28 for serum hematocrit levels, which correlate with the expression of erythropoeitin.
The mice were monitored at days 7, 14, and 28 for serum hematocrit levels, which correlate with the expression of erythropoeitin. Control serum levels were measured before any injections.

[6] = tested on: mouse quadriceps muscle; experiment: Luciferase expression in mouse quadriceps muscle after i.m. injection of plasmid VR1255 with auxiliary agents; details: 0.01% agent in saline versus saline alone, day 7
[7] = 150 mM unless otherwise indicated
[8] = 50 μg VR1223 in 50 μl, salts at 150 mM, day 7
[9] = salts at 150 mM, relative to saline, day 7

Compound | pH [3, 7] | ng Lux/Muscle [2, 8] | lux ([2]; Table III-A) | lux ([2]; Table III-B) | Fold Saline [2, 9] | Osm [4] | luciferase expression compared with saline (words) ([2]; VR1223, day 7) | other results
O [Double-distilled water, reference compound] | – | – | – | – | – | – | – | luciferase expression in lung [1]: 0.94 ng lux/lung; ng Lux per Muscle ([2]; 50 μg VR1223 in 50 μl of the solution, day 7): 4 ng per Muscle; ng luciferase per muscle ([2]; 50 μg VR1223 in 50 μl, day 7): 4 ng luciferase per muscle; luciferase expression, times lower than saline ([2]; VR1223, day 7): 25 times; Fold Saline ([2]; luciferase expression relative to saline, day 7): 0.03 Fold
O=C([O-])CC(O)(CC(=O)[O-])C(=O)[O-].[Na+].[Na+].[Na+] [Sodium Citrate] | 7.5 | 90 ng/Muscle | 108 | 108 | <0.1 Fold | 394 mmol/kg | – | luciferase expression compared with saline (words) ([2]; VR1223, day 7, listed as 150 mM sodium citrate): no ability to enhance; luciferase expression compared with saline (words) ([2]; VR1223, day 7, listed as Sodium citrate): same luciferase expression as saline; luciferase expression compared with saline (words) ([2]; VR1223, day 7, listed as sodium citrate): the same as with saline; lux ([2]; Table III-A, listed as 50 mM Sodium Citrate): 83; lux ([2]; Table III-B, listed as 50 mM Sodium Citrate): 83; osmolarity [4]: 394 mmol/kg; Osm ([4]; listed as 50 mM Sodium Citrate): 164 mmol/kg
O=C([O-])C(=O)[O-].[Na+].[Na+] [Sodium Oxalate] | 6.5 | 15 ng/Muscle | 15 | 15 | <0.1 Fold | 346 mmol/kg | inhibited luciferase expression | luciferase expression compared with saline (words) ([2]; VR1223, day 7, listed as 150 mM sodium oxalate): no ability to enhance
O=P([O-])([O-])OP(=O)([O-])[O-].[Na+].[Na+].[Na+].[Na+] [Sodium Pyrophosphate] | 9.0 | – | 3 | 3 | – | 363 mmol/kg | – | –
CC(=O)C(=O)[O-].[Na+] [Sodium Pyruvate] | 6.0 | 364 ng/Muscle | 364 | 364 | 3.1 Fold | 271 mmol/kg | increased luciferase expression compared with saline | –
O=S(=O)([O-])[O-].[Na+].[Na+] [Sodium Sulfate] | 5.5 | 312 ng/Muscle | 312 | 312 | 2.6 Fold | 349 mmol/kg | increased luciferase expression compared with saline | pH [3]: 5.5; luciferase expression, fold over saline ([2]; VR1223, day 7): 2.6 fold
O=P([O-])([O-])O.[Na+].[Na+] [Sodium dibasic, Na2HPO4] | 8.0 | 282 ng/Muscle | 282 | 282 | 2.4 Fold | 357 mmol/kg | only slightly stimulated over saline | –
O=P([O-])(O)O.[Na+] [Sodium monobasic, NaH2PO4] | 5.5 | 198 ng/Muscle | 198 | 198 | 1.7 Fold | 277 mmol/kg | only slightly stimulated over saline | –
[Cl-].[Cl-].[Zn+2] [Zinc Chloride] | 5.0 | 0.1 ng/Muscle | 0.1 | 0.1 | <0.1 Fold | 358 mmol/kg | no ability to enhance | –
Calcium Phosphate | 6.0 | 12 ng/Muscle | 12 | 12 | 0.1 Fold | 36 mmol/kg | no ability to enhance | –
octylphenoxypolyethoxyethanol [NONIDET NP-40] | – | – | – | – | – | – | – | hematocrit versus 150 mM sodium phosphate alone ([5]; 5 μg VR2901, 0.01% agent, all time points): higher hematocrit levels; rise in hematocrit ([5]; 5 μg VR2901, after day 14): 10%; increase of luciferase expression in 154 mM sodium chloride [6]: three-fold
